# Test results published in patent US7294625B2, “Pyrazole compounds” (Ube Industries, Ltd., priority 2002, dated 2007).
# Key:
# [1] = test system: LPS-induced TNF-α production in human PBMC; test: Inhibition of TNF-α production in human PBMC (in vitro); assay type: cell-based; conditions: LPS 10 μg/ml, 18 hours, TNF-α ELISA, read-out: Inhibitory effect on LPS-induced TNF-α production in human PBMC IC50 value
# Method: Test Example 2 Inhibition of TNF-α Production in Human PBMC (In Vitro)
# Test was carried out according to the method of Welker et al. (Int. Arch. Allergy Immunol., 109, 110-115 (1996).
# Heparin-added blood collected from healthy volunteer with consent was underlayed with a specific gravity-separating solution (Lymphoprep; available from Daiichi Pure Chemicals Co., Ltd.), subjected to centrifugation (800×g, 25 minutes), and a mononuclear cell layer was recovered. The obtained mononuclear cells (human PBMC) were washed twice with PBS (available from SIGMA), and resuspended in 1% FCS-containing RPMI aqueous solution (available from GIBCO) so that the cells became 5×10^6 cells/mL. The thus obtained cell suspension was diluted 10-fold with 1% FCS-containing RPMI medium, DMSO (or the compound to be tested) with a final concentration of 0.5% was added thereto, and cultured at 37° C. in 5% CO2 for 1 hour. After that, LPS (derived from E. Coli 055:5B, available from SIGMA) solution prepared by PBS was added so that the final concentration thereof being 10 μg/ml, and cultivation was carried out for further 18 hours. After the cultivation, culture medium was subjected to centrifugation (800×g, 10 minutes), and a concentration of TNF-α produced in the supernatant was measured by an enzyme-linked immunosorbent assay (ELISA) kit (TNF-α ELISA Kit, available from R&D). The concentration (IC50 value) of the test compound for inhibiting 50% of TNF-α production was calcualted by using XL-fit (available from IDBS).
# [2] = target: T1, p38MAP kinase (Homo sapiens, UniProt Q16539); test: Enzyme inhibitory test against p38MAP kinase; assay type: biochemical; conditions: active type p38MAP kinase, EGFR peptide substrate, [γ-32P]ATP, 30° C. 30 minutes; read-out: p38MAP kinase inhibition IC50 value
# T1 construct: purchased Stratagene (p38MAP kinase); Upstate (SKK/MKK6) #206145 (p38MAP kinase); #14-225 or #14-303 (SKK/MKK6)
# Method: Test Example 1 Enzyme Inhibitory Test Against p38MAP Kinase
# (1) Preparatoin of Active Type p38MAP Kinase
# An active type p38MAP kinase was prepared by incubation in a reaction solution (25 mM Tris-HCl pH 7.5, 5 mM β-glycerolphosphate, 2 mM DTT, 0.1 mM […], 10 mM MgCl2, 1 mM ATP) containing p38MAP kinase (Stratagene, #206145) and SKK/MKK6 (Upstate, #14-225 or #14-303) at 30° C. for 1 to 3 hours. This enzyme solution was diluted 5 to 10-fold with Stock Buffer (50 mM Tris-HCl pH 7.5, 0.1 mM EGTA, 0.2 mM Orthovanadate, 0.1% 2-ME, 10% glycerol, 0.03% Brij-35, 0.5 μM Microcystin), and preserved under freezing (−80° C.).
# (2) Measurement of Inhibitory Activity of p38MAP Kinase
# To 34 μL of a reaction solution (25 mM HEPES, pH 7.5, 10 mM Magnesium acetate) containing the active type p38MAP kinase prepared as mentioned above and a substrate (final concentration: […] EGFR; […]) was added 1 μL of DMSO, or a compound to be tested and dissolved in DMSO, then, the mixture was subjected to preincubation at 4° C. for 30 minutes. A reaction was started by adding 5 μL of an ATP solution (400 μM ATP, 1 μCi/μL [γ-^32P]ATP), and reacted at 30° C. for 30 minutes, and then, the reaction was stopped by adding 5 μL of 250 mM H3PO4. 25 μL of the reaction solution was placed on chromatography paper (Whatman, #P81), dried for about 2 minutes, and washed with 75 mM H3PO4. Water was removed by using 95% ethanol, it was transferred to a bial containing liquid scintillation cocktail (available from Nacalai Tesque), and radioactivity was measured. A concentration (IC50 value) of a compound to be tested necessary for inhibiting 50% of phosphrylation (^32P) of the substrate by the enzyme was calculated as compared to that non-treated by the compound to be tested by XL-fit (available from IDBS).
# [3] = test system: rat adjuvant arthritis model; test: Anti-inflammatory effect in rat adjuvant arthritis model; assay type: in vivo; conditions: LEW rats, 3 mg/Kg oral once a day
# Method: Test Example 4 Anti-inflammatory Effect in Rat Adjuvant Arthritis Model
# Heat-killed bacteria of Mycobacterium butyricum (available from Difco) were pulverized by agate mortar, and this was suspended in dry-heat sterilized liquid paraffin (available from Wako Pure Chemical Industries, Ltd.) so as to have 10 mg/ml, and subjected to ultrasonic wave treatment to obtain an adjuvant. 500 μg/50 μl/paw of the adjuvant was administered into right hind paw of LEW series rats (female, 7-weeks old, available from Charles River Japan, Inc.) under isoflurane (Forane, available from Abbott Japan) inhalation anesthesia to induce adjuvant arthritis. Also, liquid paraffin containing no dead bacteria was also administered in the same manner as mentioned above to prepare a non-treatment group.
# The test compound was suspended in a 0.5% aqueous sodium carboxymethyl cellulose solution, or dissolved in distilled water for injection, and orally administered at a dose of 10 ml/kg once a day from the injected day of the adjuvant (0th day) to 27th day.
# After 7th, 14th, 21st and 28th day from administration of the adjuvant, volumes of the right hind paw to which the adjuvant had been administered and of left hind paw to which no adjuvant had been administered were measured by a plethysmometer (TK-101CMP, UNICOM). An edema ratio was calculated from the following equation. Edema ratio (%)=[(volume of hind paw at the time of measurement)/(volume of hind paw before initiation of the test)−1]×100 Moreover, edema suppressive ratio based on the control group to which the vehicle was administered was calculated from the following equation. Edema suppressive ratio (%)=[1-{(edema ratio of test compound-administered group)−(edema ratio of non-treated group)}/{(edema ratio of control group)−(edema ratio of non-treatment group)}]×100 The test results are shown in Table 8.
# [4] = test system: cytokine (IL-1β and TNF-α) induced IL-6 production; test: Inhibition of IL-6 production in rat (in vivo); conditions: LEW rats, 3 mg/Kg oral, 1 hour before IL-1β/TNF-α i.v., serum IL-6 two hours later
# Method: Test Example 3 Inhibition of IL-6 Production in Rat (In Vivo)
# A cytokine mixed solution of IL-1β and TNF-α was intravenously injected to rats to induce production of IL-6. A mixed solution of IL-1β (available from R&D) (4 μg/ml) and TNF-α (available from R&D) (2 μg/ml) dissolved in PBS was administered to tail vein of LEW series rats (female, body weight: about 140 to 170 g, available from Charles River Japan, Inc.) fasted overnight with a ratio of 1 ml/kg of the body weight. Two hours later, blood was collected from the neck vein under ether anesthesia. The collected blood was centrifuged under the conditions of 20° C. and 10,000×g to separate serum. IL-6 concentration in the serum was measured by using an enzyme-linked immunosorbent assay (ELISA) kit (IL-6 ELISA KIT, available from R&D).
# The test compound or the vehicle was orally administered with a dose of 10 ml/kg of the body weight before 1 hour of the injection of the cytokine mixed solution. The control group to which the vehicle was administered and the group of the compound to be tested were each 5 rats per group. An inhibitory ratio of the group of the compound to be tested based on control group was calculated.
# T1 sequence (Q16539 whole entry): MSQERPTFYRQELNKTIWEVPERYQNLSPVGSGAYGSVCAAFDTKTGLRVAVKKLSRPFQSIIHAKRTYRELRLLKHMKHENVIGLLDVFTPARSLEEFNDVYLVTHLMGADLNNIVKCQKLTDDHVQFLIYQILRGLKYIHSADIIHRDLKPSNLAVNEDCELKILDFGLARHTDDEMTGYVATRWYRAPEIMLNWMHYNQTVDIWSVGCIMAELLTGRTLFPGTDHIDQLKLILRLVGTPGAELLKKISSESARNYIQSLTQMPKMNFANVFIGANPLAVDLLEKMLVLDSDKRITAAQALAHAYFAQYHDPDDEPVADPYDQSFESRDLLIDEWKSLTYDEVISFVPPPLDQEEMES
IC50 [2] [nM],SMILES,IC50 [1] [nM],28th day left hind paw edema suppressive ratio (%) @3 mg/Kg [3],Rat cytokine induced IL-6 production inhibiting ratio (%) @3 mg/Kg [4] [%],left hind paw edema suppressive ratio (%) @3 mg/Kg ([3]; 21st day)
2.5,"Nc1cc(-c2cn(-c3ccc(=O)[nH]n3)nc2-c2ccc(F)cc2)ccn1 [Example 2, 4-(2-Aminopyridin-4-yl)-3-(4-fluorophenyl)-1-(1,6-dihydro-6-oxopyridazin-3-yl)-1H-pyrazole]",24,83 (28th day) %,–,–
25,"Fc1ccc(-c2nn(-c3ccc4nncn4n3)cc2-c2ccncc2)cc1 [Example 5, 3-(4-Fluorophenyl)-4-(pyridin-4-yl)-1-([1,2,4]triazolo[4,3-b]pyridazin-6-yl)-1H-pyrazole]",4,–,92,–
7.4,"Nc1cc(-c2cn(-c3ccc4nncn4n3)nc2-c2ccc(F)cc2)ccn1 [Example 8, 4-(2-Aminopyridin-4-yl)-3-(4-fluorophenyl)-1-([1,2,4]triazolo[4,3-b]pyridazin-6-yl)-1H-pyrazole]",–,79 (28th day) %,–,–
29,"CNc1cc(-c2cn(-c3ccc4nncn4n3)nc2-c2ccc(F)cc2)ccn1 [Example 13, 3-(4-Fluorophenyl)-4-(2-methylaminopyridin-4-yl)-1-([1,2,4]triazolo[4,3-b]pyridazin-6-yl)-1H-pyrazole]",–,–,–,79 (21st day) %
2,"Fc1ccc(-c2nn(-c3ccc4nncn4n3)cc2-c2ccnc(NCC(F)(F)F)c2)cc1 [Example 16, 3-(4-Fluorophenyl)-1-([1,2,4]triazolo[4,3-b]pyridazin-6-yl)-4-[2-(2,2,2-trifluoroethyl)aminopyridin-4-yl]-1H-pyrazole]",–,–,97,–
7,"Nc1cc(-c2cn(C3=NNC(=O)CC3)nc2-c2ccccc2)ccn1 [Example 49, 4-(2-Aminopyridin-4-yl)-1-(1,4,5,6-tetrahydro-6-oxopyridazin-3-yl)-3-phenyl-1H-pyrazole]",–,–,84,–

# Second part, the compound before the results:
SMILES,IC50 [2] [nM],IC50 [1] [nM],28th day left hind paw edema suppressive ratio (%) @3 mg/Kg [3],Rat cytokine induced IL-6 production inhibiting ratio (%) @3 mg/Kg [4] [%],left hind paw edema suppressive ratio (%) @3 mg/Kg ([3]; 21st day)
"Nc1cc(-c2cn(-c3ccc(=O)[nH]n3)nc2-c2ccccc2)ccn1 [Example 20, 4-(2-Aminopyridin-4-yl)-1-(1,6-dihydro-6-oxopyridazin-3-yl)-3-phenyl-1H-pyrazole]",–,–,–,78,–
"Nc1cc(-c2cn(-c3ccc(=O)[nH]n3)nc2-c2ccccc2F)ccn1 [Example 26, 4-(2-Aminopyridin-4-yl)-3-(2-fluorophenyl)l-1(1,6-dihydro-6-oxopyridazin-3-yl)-1H-pyrazole]",–,–,–,77,–
"Nc1cc(-c2cn(-c3ccc4nncn4n3)nc2-c2ccccc2F)ccn1 [Example 42, 4-(2-Aminopyridin-4-yl)-3-(2-fluorophenyl)-1-([1,2,4]triazolo[4,3-b]pyridazin-6-yl)-1H-pyrazole]",9.5,–,–,73,–
"O=C1CCC(n2cc(-c3ccnc(NCC(F)(F)F)c3)c(-c3ccc(F)cc3)n2)=NN1 [Example 56, 3-(4-Fluorophenyl)-1(1,4,5,6-tetrahydro-6-oxopyridazin-3-yl)-4-[2-(2,2,2-trifluoroethyl)aminopyridin-4-yl]-1H-pyrazole]",–,–,–,85,–
